Data set [1] can be described thus: Selectivity index, ratio of IC50 for human HepG2 cells to IC50 for human MDA-MB-231 cells. The data set is classed as functional.
The test system of data set [2] is MDA-MB-231. The data set can be described thus: Antitumor activity against human MDA-MB-231 cells xenografted in BALB/c nude mouse assessed as inhibition of tumor growth by measuring chromosome aberrations at 12.5 to 25 mg/kg/day, ip administered for 15 days. The data set is classed as functional, organism-based. The conditions noted are these: dose 12.5-25 mg/kg/day, time 15.0 day. In general terms: A xenograft is tissue or cells of one species grown in another, often human tumour cells in immunodeficient mice.

Data set [3] relates to MDA-MB-231. The data set can be described thus: Induction of cell cycle arrest in human MDA-MB-231 cells assessed as accumulation of cells at G1 phase at 31.25 nM incubated for 12 hrs by flow cytometry analysis (reference value: 43.2%). The data set is classed as functional. For orientation: A flow cytometer gives signals particle by particle.
The test system of data set [4] is MDA-MB-231. Kind of data set: Induction of apoptosis in human MDA-MB-231 cells assessed as reduction in Bcl-2 protein expression measured after 24 hrs by Western blot analysis. Type of data set: functional, cell-based. The conditions noted are these: dose 7.8-500 nM. On the technique in general: In western blotting, separated proteins are transferred to a membrane and probed.

Data set [5] has as its system A549. The data set can be described thus: Induction of cell cycle arrest in human A549 cells assessed as accumulation of cells at S phase at 125 nM incubated for 12 hrs by flow cytometry analysis (reference value: 31.81%). The data set is classed as functional.
For data set [6], the system named is A549. The data set can be described thus: Induction of cell cycle arrest in human A549 cells assessed as accumulation of cells at G1 phase at 15.625 nM incubated for 12 hrs by flow cytometry analysis (reference value: 59.57%). The data set is classed as functional. As to conditions: 0.01562 µM.
The subject of data set [7] is MDA-MB-231. Kind of data set: Induction of cell cycle arrest in human MDA-MB-231 cells assessed as accumulation of cells at G2 phase at 125 nM incubated for 12 hrs by flow cytometry analysis (reference value: 15.91%). Type of data set: functional.
Data set [8] is described as follows: Drug absorption in KM mouse at 25 mg/kg, ip measured after 0.5 to 2 hrs. The data set is classed as ADME, organism-based. As to conditions: in vivo, time 0.5-2 hrs.
The test system of data set [9] is A549. The data set can be described thus: Induction of apoptosis in human A549 cells assessed as early apoptotic cells at 250 nM incubated for 24 hrs by annexin V-FITC/PI staining based flow cytometry analysis (reference value: 0.78%). Type of data set: functional.
Data set [10] has as its system MDA-MB-231. The data set can be described thus: Induction of apoptosis in human MDA-MB-231 cells assessed as dead cells at 62.5 nM incubated for 24 hrs by annexin V-FITC/PI staining based flow cytometry analysis (reference value: 0.69%). Type of data set: functional.

The source made the active and inactive calls. The calls are words filed in the database; no cut-off is given here.

As to `O=C(/C=C/c1ccccc1)Nc1cc(-c2ccnc(N3CCC(CO)CC3)c2)ccn1`, the “Ratio IC50” value in data set [1] turned out to be 4.81. The outcome in the data set on MDA-MB-231 [2] was Active. In addition, the Activity with MDA-MB-231 [3] was 42.63%; in the data set on MDA-MB-231 [4], “Dose-Dependent Effect”; in the data set with A549 [5], 37.15%; in the data set on A549 [6] it was 59.06%; in the data set on MDA-MB-231 [7], 85.88%; in the data set on A549 [9], 31.3%. For the same molecule, in the data set with MDA-MB-231 [10], the Activity came to 2.47%. The Drug absorption entry in data set [8] was “Active”.
